Results: PMC6385020 (Molecules, 2019)

Assays:
[1] = test system: F-21-T (DNA, G4) GGGTTAGGGTTAGGGTTAGGG; experiment: FRET-melting; conditions: 10 mM KCl, 90 mM LiCl; 10 mM lithium cacodylate pH 7.3; 1 µM compound, 0.2 µM DNA
[2] = test system: F-myc-T (DNA, G4) TGAGGGTGGGTAGGGTGGGTAA; experiment: FRET-melting; conditions: 1 mM KCl, 99 mM LiCl; 10 mM lithium cacodylate pH 7.3; 1 µM compound, 0.2 µM DNA
[3] = test system: F-21CTA-T (DNA, G4) AGGGCTAGGGCTAGGGCTAGGG; experiment: FRET-melting; conditions: 1 mM KCl, 99 mM LiCl; 10 mM lithium cacodylate pH 7.3; 1 µM compound, 0.2 µM DNA
[4] = test system: F-CEB25-WT-T (DNA, G4) AGGGTGGGTGTAAGTGTGGGTGGGT; experiment: FRET-melting; conditions: 1 mM KCl, 99 mM LiCl; 10 mM lithium cacodylate pH 7.3; 1 µM compound, 0.2 µM DNA
[5] = test system: 22AG (DNA, G4) AGGGTTAGGGTTAGGGTTAGGG; experiment: G4-FID, TO-PRO-3 displacement; conditions: 100 mM KCl; 10 mM lithium cacodylate pH 7.3, 1% DMSO; TO-PRO-3 displaced; 1 µM compound, 0.25 µM DNA
[6] = test system: c-myc (myc22) (DNA, G4) TGAGGGTGGGTAGGGTGGGTAA; experiment: G4-FID, TO-PRO-3 displacement; conditions: 100 mM KCl; 10 mM lithium cacodylate pH 7.3, 1% DMSO; TO-PRO-3 displaced; 1 µM compound, 0.25 µM DNA
[7] = test system: 21CTA (DNA, G4) AGGGCTAGGGCTAGGGCTAGGG; experiment: G4-FID, TO-PRO-3 displacement; conditions: 100 mM KCl; 10 mM lithium cacodylate pH 7.3, 1% DMSO; TO-PRO-3 displaced; 1 µM compound, 0.25 µM DNA
[8] = test system: CEB25-WT (DNA, G4) AAGGGTGGGTGTAAGTGTGGGTGGGT; experiment: G4-FID, TO-PRO-3 displacement; conditions: 100 mM KCl; 10 mM lithium cacodylate pH 7.3, 1% DMSO; TO-PRO-3 displaced; 1 µM compound, 0.25 µM DNA

Cc1ccc(-c2cc(-c3ccccn3)nc(-c3ccccn3)c2)cc1.[Cl-].[Cl][Pt+] [Pt-ttpy]
ΔTm [1]: > 10 °C
ΔTm [2]: > 10 °C
ΔTm [3]: > 10 °C
ΔTm [4]: > 10 °C

CN(C)c1ccc(/C=C/c2cc(-c3ccccn3)nc(-c3ccccn3)n2)cc1.[Cl-].[Cl][Pt+] [Pt-vpym, Chloro-(E)-4-(2-(2,6-di(pyridin-2-yl)pyrimidin-4-yl)vinyl)-N,N-dimethylaniline-platinum(II) Chloride]
% TO-PRO-3 displacement [5]: ~ 30%
% TO-PRO-3 displacement [6]: ~ 30%
% TO-PRO-3 displacement [7]: ~ 30%
% TO-PRO-3 displacement [8]: ~ 30%
